Measurements as given in patent publication US11266170B2, “Sweetener and flavor compositions, methods of making and methods of use thereof” (EPC Natural Products Co., Ltd., priority 2018, dated 2022).
Residues, ends and D or L forms follow the SMILES beside them.

How the values were obtained:
3 persons = experiment: Sensory analysis of odor/smell, color and taste of reacted samples (Examples 55-62); assay type: in vivo
Method: The reaction partners were dissolved in water and then warmed glycerin (60° C.) was added. […]
The taste test was performed as in Example 38.
All samples were assessed at 22° C. after the Maillard reaction was stopped by placing the sealed vials in an ice bath. After 20 minutes in the ice bath the sealed vials were put in a water bath set to 22° C.
The odor/smell was assessed independently by 3 persons; the final description was agreed after discussion. […] The taste was assessed independently by 3 persons either in the original samples or after appropriate dilution to achieve relevant concentrations of sugars and steviol-glycosides (i.e. 5-9% SE); the final description was agreed after discussion.

[1] = cited from earlier work; for times sweeter than sucrose: relative to sucrose / sugar, the sweetness depends on the tested concentration; for Sweetness by food energy / Sweetness by weight: compared to sucrose
[2] = Kinetics of reaction of Phe with Reb-A, Gluc, Xyl, Suc in dependence of pH-conditions, HPLC/MS (Example 55); assay type: physicochemical
Method: Quantitative evaluation was performed using external standardization.
Kinetics of Reaction in dependence of pH-conditions

[3] = negative controls (no carbohydrate source), 10 ml glycerin/water 9:1, 100 °C, 40 minutes
[4] = Example 57, before reaction, 10 ml KH2PO4, pH 7.8
[5] = Example 57, after reaction, 10 ml KH2PO4, pH 7.8, 2.5 h, 120 °C
[6] = reaction of Phe and Reb-A, pH = 5.5, Reb-B from degraded Reb-A, MRIs from degraded Phe
[7] = reaction of Phe and Reb-A, pH = 7.0, Reb-B from degraded Reb-A, MRIs from degraded Phe
[8] = reaction of Phe and Reb-A, pH = 8.5, Reb-B from degraded Reb-A, MRIs from degraded Phe

C[C@H](N)C(=O)O [8.91 mg Ala]
Smell (3 persons; [3]): Neutral, slightly Agar | Taste (3 persons; [3]): Slightly sweet

OC[C@H]1OC(O)[C@H](O)[C@@H](O)[C@@H]1O (stereo partly drawn) [9 mg Glucose]
Smell (3 persons; [4]): neutral | Taste (3 persons; [4]): Sweet

N[C@@H](CO)C(=O)O [10.5 mg Ser]
Smell (3 persons; [3]): Lotus flower | Taste (3 persons; [3]): Slightly sweet

O=C(O)[C@@H]1CCCN1 [11.5 mg Pro]
Taste (3 persons; [3]): Slightly sweet

C[C@@H](O)[C@H](N)C(=O)O [11.91 mg Thr]
Smell (3 persons; [3]): Vanilla, butter | Taste (3 persons; [3]): Slightly sweet

N[C@@H](CS)C(=O)O [12.1 mg Cys]
Smell (3 persons; [3]): Unpleasant (sulfur) | Taste (3 persons; [3]): Slightly sweet

CC[C@H](C)[C@H](N)C(=O)O [13.11 mg Ile]
Smell (3 persons; [3]): Coffee | Taste (3 persons; [3]): Slightly sweet

NCCCC[C@H](N)C(=O)O [14.7 mg Lys]
Smell (3 persons; [3]): Popcorn | Taste (3 persons; [3]): Slightly sweet

CSCC[C@H](N)C(=O)O [14.9 mg Met]
Smell (3 persons; [3]): Sulfuric | Taste (3 persons; [3]): Slightly sweet

N[C@@H](Cc1ccccc1)C(=O)O [16.5 mg Phe]
Smell (3 persons; [4]): neutral | Taste (3 persons; [4]): No taste | Smell (3 persons; Example 58, after reaction, 10 ml KH2PO4, pH 7.8, 2.5 h, 120 °C): Caramel, burnt | Taste (3 persons; Example 58, after reaction, after dilution 1:20): Sweet | Smell (3 persons; Example 58, before reaction, 10 ml KH2PO4, pH 7.8): Neutral | Taste (3 persons; Example 58, before reaction, after dilution 1:20): No taste | Smell (3 persons; [3]): Bloomy, caramel | Taste (3 persons; [3]): Slightly sweet

N[C@@H](Cc1ccc(O)cc1)C(=O)O [18.1 mg Tyr]
Smell (3 persons; [3]): neutral | Taste (3 persons; [3]): Slightly sweet

N[C@@H](Cc1c[nH]c2ccccc12)C(=O)O [20.42 mg Try]
Smell (3 persons; [3]): Unpleasant (fecal) | Taste (3 persons; [3]): Slightly sweet

COC(=O)[C@H](Cc1ccccc1)NC(=O)[C@@H](N)CC(=O)O [Aspartame] (H-Asp-Phe-OMe)
times sweeter than sucrose [1]: 160-200 times

OC[C@@H](O)[C@@H](O)CO [Erythritol]
Sweetness by food energy [1]: 14 | Sweetness by weight [1]: 0.6-0.7

O=C[C@H](O)[C@@H](O)[C@H](O)[C@H](O)C(=O)O [Glucuronic Acid]
Smell (3 persons; [5]): burnt bread | Taste (3 persons; [5]): Bitter

O=C1O[C@@H]2[C@@H](O)[C@H](O)O[C@@H]2C1O (stereo partly drawn) [Glucuronolactone]
Smell (3 persons; [5]): Burnt sugar | Taste (3 persons; [5]): Bitter

OCC(O)CO [Glycerol]
Sweetness by food energy [1]: 0.55 | Sweetness by weight [1]: 0.6

CC1(C)[C@@H](O[C@H]2O[C@H](C(=O)O)[C@@H](O)[C@H](O)[C@H]2O[C@@H]2O[C@H](C(=O)O)[C@@H](O)[C@H](O)[C@H]2O)CC[C@]2(C)[C@H]3C(=O)C=C4[C@@H]5C[C@@](C)(C(=O)O)CC[C@]5(C)CC[C@@]4(C)[C@]3(C)CC[C@@H]12 [Glycyrrhizin]
Sweetness by weight [1]: 30-50

OC[C@H]1O[C@H](OC[C@H]2OC(O)(CO)[C@@H](O)[C@@H]2O)[C@H](O)[C@@H](O)[C@@H]1O (stereo partly drawn) [Isomaltulose]
Sweetness by weight [1]: 0.5

OC[C@@H](O)[C@@H](O[C@@H]1O[C@H](CO)[C@H](O)[C@H](O)[C@H]1O)[C@H](O)[C@@H](O)CO [Lactitol]
Sweetness by food energy [1]: 0.8 | Sweetness by weight [1]: 0.4

O=C(O)[C@H](Cc1ccccc1)NCC(=O)[C@@H](O)[C@H](O)[C@H](O)CO [MRI (Phe-Glu)]
% formation ([2]; reaction of Phe and Suc, pH = 5.5, from degraded Phe): <0.10% | % formation ([2]; reaction of Phe and Suc, pH = 7.0, from degraded Phe): 0.54% | % formation ([2]; reaction of Phe and Suc, pH = 8.5, from degraded Phe): 0.84%

C=C1CC23CC[C@H]4[C@@](C)(CCC[C@@]4(C)C(=O)OC4O[C@H](C(=O)N[C@H](Cc5ccccc5)C(=O)O)[C@@H](O)[C@H](O)[C@H]4O)[C@@H]2CC(O[C@@H]2O[C@H](CO)[C@@H](O)C(O[C@@H]4O[C@H](CO)[C@@H](O)[C@H](O)[C@H]4O)[C@H]2O[C@@H]2O[C@H](CO)[C@@H](O)[C@H](O)[C@H]2O)C1C3 (stereo partly drawn) [MRI (Phe-Reb-A)]
% formation [2, 6]: 10.4% | % formation [2, 7]: 11.3% | % formation [2, 8]: 14.7%

OC[C@@H](O)[C@@H](O[C@H]1O[C@H](CO)[C@@H](O)[C@H](O)[C@H]1O)[C@H](O)[C@@H](O)CO [Maltitol]
Sweetness by food energy [1]: 1.7 | Sweetness by weight [1]: 0.75-0.9

OC[C@@H](O)[C@@H](O)[C@H](O)[C@H](O)CO [Mannitol]
Sweetness by food energy [1]: 1.2 | Sweetness by weight [1]: 0.5 | times sweeter than sucrose [1]: 0.55-0.65 times

N[C@@H](C[C@@](O)(Cc1c[nH]c2ccccc12)C(=O)O)C(=O)O [Monatin]
Sweetness by weight [1]: 3,000

COc1ccc(CCC(=O)c2c(O)cc(O[C@@H]3O[C@H](CO)[C@@H](O)[C@H](O)[C@H]3O[C@@H]3O[C@@H](C)[C@H](O)[C@@H](O)[C@H]3O)cc2O)cc1O [NHDC, Neohesperidin dihydrochalcone]
times sweeter than sugar at threshold concentrations ([1]; at threshold concentrations): 1500-1800 times | times sweeter than sugar weight-for-weight ([1]; weight-for-weight): about 340 times

C[C@@H]1O[C@@H](O[C@H]2O[C@@H]([C@@H](C)C3CC[C@@H]4[C@H]5CC(=O)[C@@H]6C[C@H](O[C@@H]7O[C@H](CO)[C@@H](O)[C@H](O)[C@H]7O[C@@H]7O[C@@H](C)[C@H](O)[C@@H](O)[C@H]7O)CC[C@]6(C)[C@@H]5CC[C@]34C)CC[C@@H]2C)[C@H](O)[C@H](O)[C@H]1O (stereo partly drawn) [Osladin]
Sweetness by weight [1]: 500

O=C(CO)[C@H](O)[C@H](O)[C@H](O)CO [Psicose]
Sweetness by weight [1]: 0.7

C=C1C[C@@]23CC[C@H]4[C@@](C)(CCC[C@@]4(C)C(=O)O[C@@H]4O[C@H](CO)[C@@H](O)[C@H](O)[C@H]4O)[C@@H]2CC[C@]1(O[C@@H]1O[C@H](CO)[C@@H](O)[C@H](O)[C@H]1O)C3 [Rubusoside]
times sweeter than sucrose [1]: 200 times

OC[C@@H](O)[C@@H](O)[C@H](O)[C@@H](O)CO [Sorbitol]
Sweetness by food energy [1]: 0.9 | Sweetness by weight [1]: 0.6

OC[C@H]1O[C@@](CO)(O[C@H]2O[C@H](CO)[C@@H](O)[C@H](O)[C@H]2O)[C@@H](O)[C@@H]1O [Suc]
% degradation ([2]; reaction of Phe and Suc, pH = 5.5): 3.67% | % degradation ([2]; reaction of Phe and Suc, pH = 7.0): 5.69% | % degradation ([2]; reaction of Phe and Suc, pH = 8.5): 9.81%

O=C(CO)[C@@H](O)[C@@H](O)[C@H](O)CO [Tagatose]
Sweetness by food energy [1]: 2.4 | Sweetness by weight [1]: 0.92

C[C@H](CC[C@@H](O[C@@H]1O[C@H](CO)[C@@H](O)[C@H](O)[C@H]1O[C@@H]1O[C@H](CO)[C@@H](O)[C@H](O)[C@H]1O)C(C)(C)O)[C@H]1CC[C@@]2(C)[C@H]3CC=C4[C@@H](CC[C@H](O[C@@H]5O[C@H](CO[C@@H]6O[C@H](CO)[C@@H](O)[C@H](O)[C@H]6O)[C@@H](O)[C@H](O)[C@H]5O)C4(C)C)[C@]3(C)[C@H](O)C[C@]12C [mogroside IV]
times sweeter than sucrose [1]: 126 times

C[C@H](CC[C@@H](O[C@@H]1O[C@H](CO[C@@H]2O[C@H](CO)[C@@H](O)[C@H](O)[C@H]2O)[C@@H](O)[C@H](O)[C@H]1O[C@@H]1O[C@H](CO)[C@@H](O)[C@H](O)[C@H]1O)C(C)(C)O)[C@H]1CC[C@@]2(C)[C@@H]3CC=C4[C@@H](CC[C@H](O[C@@H]5O[C@H](CO[C@@H]6O[C@H](CO)[C@@H](O)[C@H](O)[C@H]6O)[C@@H](O)[C@H](O)[C@H]5O)C4(C)C)[C@]3(C)[C@H](O)C[C@]12C [mogroside V]
times sweeter than sucrose [1]: 256-344 times

O=S(=O)([O-])NC1CCCCC1.[Na+] [sodium cyclamate]
times sweeter than sucrose [1]: about 30 times

OC[C@H]1O[C@H](O[C@]2(CCl)O[C@H](CCl)[C@@H](O)[C@@H]2O)[C@H](O)[C@@H](O)[C@H]1Cl [sucralose]
times sweeter than sucrose [1]: about 600 times

Brazzein (QDKCKKVYENYPVSKCQLANQCNYDCKLDKHARSGECFYDEKRNLQCICDYCEY; UniProt P56552 1-54, looked up) [Protein]
Sweetness by weight [1]: 500-2000

Curculin
Sweetness by weight [1]: 430-2070

Inulin
Sweetness by weight [1]: 0.1

Isomalt
Sweetness by food energy [1]: 0.9-1.3 | Sweetness by weight [1]: 0.45-0.65

Mabinlin
Sweetness by weight [1]: 100

Maltodextrin
Sweetness by weight [1]: 0.15

Monellin
Sweetness by weight [1]: 800-2,000

Pentadin
Sweetness by weight [1]: 500

Polydextrose
Sweetness by weight [1]: 0.1

rebaudioside B [RB]
% formation [2, 6]: 23.1% | % formation [2, 7]: 22.7% | % formation [2, 8]: 19.1%

B1: Miraculin (protein, UniProt P13087 30-220, looked up)
Miraculin: DSAPNPVLDIDGEKLRTGTNYYIVPVLRDHGGGLTVSATTPNGTFVCPPRVVQTRKEVDHDRPLAFFPENPKEDVVRVSTDLNINFSAFMPCRWTSSTVWRLDKYDESTGQYFVTIGGVKGNPGPETISSWFKIEEFCGSGFYKLVFCPTVCGSCKVKCGDVGIYIDQKGRRRLALSDKPFAFEFNKTVYF
Notes (taste) ([1]; result in words): A protein that does not taste sweet by itself
